In patent US6420352B1, “Hair loss prevention” (priority 2000, dated 2002):
Read-outs that look alike come from different tables or passages of the source.

Experiments:
age related hair loss = details: stump-tail macaque monkeys; cited from earlier work
[1] = cited from earlier work
scalp hair follicles = details: in vivo; cited from earlier work
hair loss = test: Topical use for hair loss prevention, effectiveness in patients; assay type: in vivo, human; details: same amount of minoxidil
Source text: […]. […] […]. After about thirty months of use, about half of the new hair growth falls out. Thus, while the user has somewhat more hair than originally, the user has less hair than […].
Minoxidil without a penetration enhancer (as available in ROGAINE™ topical minoxidil U.S.P.) produces a different kind of hair than does minoxidil used with a penetration enhancer.
Further, it is known in the art that minoxidil users experience a sudden drop in hair thickness after about thirty months of usage. I thus have sought the time at which my compounds have a sudden drop in effectiveness. […] That this function is abnormal is confirmed by its drop in effectiveness after thirty months; such a drop in efficacy indicates a “tolerance” acquired against the intervention, rather than the maintenance of a permanent, healthy state.
Using the specific formulations disclosed here, I have observed decreases in hair loss, and a consequent statistically significant increase in the amount of healthy mature hair, after 4.0-4.5 months on the frontal scalp. On the crown and back of the head, by contrast, I have observed statistically significant results after 4.5-5.0 months. The frontal scalp may react faster because it enjoys greater vascularization and blood flow than the other parts of the scalp.
I have found several surprising things about testosterone blockers. […]

## CN(C)C(=O)C1CCC2C3CCC4N(C)C(=O)CCC4(C)C3CCC12C (stereo not drawn) [17b-N,N,- dimethylcarbamoyl-4-methyl-4-aza-5α-androstan-3-one]
Age related hair loss
  age related hair loss versus untreated monkeys: significantly less age related hair loss

## CCC(CCCCC1CCC2CC(=O)CC12)OC (stereo not shown) [Cioteronel, hexahydro-4-(5-methoxyheptyl)-2(1H)-pentalenone]
[1]; in lipid and relatively non-polar solvents
  solubility, in words: soluble

## CC(C)(C)NC(=O)[C@H]1CC[C@H]2[C@@H]3CC[C@H]4NC(=O)C=C[C@]4(C)[C@H]3CC[C@]12C [finasteride]
Scalp hair follicles
  effect on scalp hair follicles / balding process: miniaturizes scalp hair follicles, reversing the balding process

## Nc1cc(N2CCCCC2)nc(N)[n+]1[O-] [minoxidil, 6-(1-piperidinyl)-2,4-pyrimidinediamaine 3-oxide]
Hair loss
  share of patients on whom the preparation is effective: 8%

## CC(=O)[C@H]1CC[C@H]2[C@@H]3CCC4=CC(=O)CC[C@]4(C)[C@H]3CC[C@]12C [Progesterone, pregn-4-ene-3, 20-dione]
[1]; in alcohol, acetone, dioxane, and concentrated sulfuric acid
  solubility, in words: soluble
[1]; in vegetable oils
  solubility, in words: sparingly soluble
[1]; in water
  solubility, in words: insoluble
